The subject of the assay is BACE1. Put plainly: Screening for ALT-59 derivatives with BACE1 protein levels as indicator, U-87 MG cells. The note with it: 2 days, concentrations as indicated in FIGS. 15-17. The format is cell-based. On the procedure: Additional experiments were performed to screen for compounds with higher potency and the ability to penetrate blood brain barrier using BACE1 protein levels as an indicator. U-87 MG cells were cultured as described previously and treated for 2 days with compounds at concentrations as indicated in FIGS. 15-17. Cells were then subjected to Western blotting analysis using anti-BACE1 and anti-beta-actin antibodies.
With `COc1ccc(C2Nc3c(ccc4ccccc34)C3=C2C(=O)CCC3)cc1Br` (centres unmarked) [ALT-108, 6-(3-bromo-4-methoxyphenyl)-6,8,9,10-tetrahydrobenzo[c]phenanthridin-7(5H)-one], the BACE1 protein expression entry is listed as “capable of lowering BACE1 expression”. Regarding `CC1(C)CC(=O)C2=C(C1)c1c(ccc3ccccc13)NC2c1cccc(OC(F)(F)C(F)F)c1` (centres unmarked) [ALT-110, 2,2-dimethyl-5-(3-(1,1,2,2-tetrafluoroethoxy)phenyl)-2,3,5,6-tetrahydrobenzo[a]phenanthridin-4(1H)-one], the BACE1 protein expression entry was “capable of lowering BACE1 expression”.

As to `CC1(C)CC(=O)C2=C(C1)C(c1ccc3c(c1)OCO3)Nc1ccc3ccccc3c12` (centres unmarked) [ALT-201, 5-(benzo[d][1,3]dioxol-5-yl)-3,3-dimethyl-3,4,5,6-tetrahydrobenzo[a]phenanthridin-1(2H)-one], the BACE1 protein expression result was “capable of lowering BACE1 expression”. Consider `CC1(C)CC(=O)C2=C(C1)c1c(ccc3ccccc13)NC2c1ccc(Br)s1` (centres unmarked) [ALT-202, 5-(5-bromothiophen-2-yl)-2,2-dimethyl-2,3,5,6-tetrahydrobenzo[a]phenanthridin-4(1H)-one], for which the BACE1 protein expression entry is reported as “capable of lowering BACE1 expression”. Under `CC1(C)CC(=O)C2=C(C1)c1c(ccc3ccccc13)NC2c1ccc(Cl)c(Cl)c1` (centres unmarked) [ALT-204, 5-(3,4-dichlorophenyl)-2,2-dimethyl-2,3,5,6-tetrahydrobenzo[a]phenanthridin-4(1H)-one] stands “capable of lowering BACE1 expression”; under `CC1(C)CC(=O)C2=C(C1)c1cc3ccccc3cc1NC2c1ccc2c(c1)OCO2` (centres unmarked) [ALT-205, 5-(benzo[d][1,3]dioxol-5-yl)-2,2-dimethyl-2,3,5,6-tetrahydrobenzo[b]phenanthridin-4(1H)-one], “capable of lowering BACE1 expression”. Under `CCOc1ccc(C2Nc3ccc4ccccc4c3C3=C2C(=O)CC(C)(C)C3)cc1OC` (centres unmarked) [ALT-207, 5-(4-ethoxy-3-methoxyphenyl)-2,2-dimethyl-2,3,5,6-tetrahydrobenzo[a]phenanthridin-4(1H)-one] stands “capable of lowering BACE1 expression”. Next, `COc1cc(C2Nc3ccc4ccccc4c3C3=C2C(=O)CC(C)(C)C3)cc(Br)c1OC` (centres unmarked) [ALT-208, 5-(3-bromo-4,5-dimethoxyphenyl)-2,2-dimethyl-2,3,5,6-tetrahydrobenzo[a]phenanthridin-4(1H)-one]: “capable of lowering BACE1 expression”; `CC1(C)CC(=O)C2=C(C1)c1c(ccc3ccccc13)NC2c1cccc(OCc2cc3c(cc2Cl)OCO3)c1` (centres unmarked) [ALT-210, 5-(3-((6-chlorobenzo[d][1,3]dioxol-5-yl)methoxy)phenyl)-2,2-dimethyl-2,3,5,6-tetrahydrobenzo[a]phenanthridin-4(1H)-one]: “capable of lowering BACE1 expression”.

As to `COc1cc(C2Nc3ccc4ccccc4c3C3=C2C(=O)CC(C)(C)C3)cc2c1OCO2` (centres unmarked) [ALT-211, 5-(7-methoxybenzo[d][1,3]dioxol-5-yl)-2,2-dimethyl-2,3,5,6-tetrahydrobenzo[a]phenanthridin-4(1H)-one], the BACE1 protein expression result is “capable of lowering BACE1 expression”.

With `CC1(C)CC(=O)C2=C(C1)c1c(ccc3ccccc13)NC2c1ccc(C(F)(F)F)cc1` (centres unmarked) [ALT-212, 2,2-dimethyl-5-(4-(trifluoromethyl)phenyl)-2,3,5,6-tetrahydrobenzo[a]phenanthridin-4(1H)-one], the BACE1 protein expression entry is recorded as “capable of lowering BACE1 expression”. Under `CC1(C)CC(=O)C2=C(C1)c1c(ccc3ccccc13)NC2c1cccc(C(F)(F)F)c1` (centres unmarked) [ALT-215, 2,2-dimethyl-5-(3-(trifluoromethyl)phenyl)-2,3,5,6-tetrahydrobenzo[a]phenanthridin-4(1H)-one] stands “capable of lowering BACE1 expression”; under `Cc1ccc(C2Nc3ccc4ccccc4c3C3=C2C(=O)CC(C)(C)C3)cc1` (centres unmarked) [ALT-306, 2,2-dimethyl-5-(p-tolyl)-2,3,5,6-tetrahydrobenzo[a]phenanthridin-4(1H)-one], “capable of lowering BACE1 expression”. With `COc1ccc(C2Nc3ccc4ccccc4c3C3=C2C(=O)CC(C)(C)C3)cc1Br` (centres unmarked) [ALT-307, 5-(3-bromo-4-methoxyphenyl)-2,2-dimethyl-2,3,5,6-tetrahydrobenzo[a]phenanthridin-4(1H)-one], the BACE1 protein expression entry is given as “capable of lowering BACE1 expression”.

Turning to `CC(C)c1ccc(C2Nc3ccc4ccccc4c3C3=C2C(=O)CC(C)(C)C3)cc1` (centres unmarked) [ALT-309, 5-(4-isopropylphenyl)-2,2-dimethyl-2,3,5,6-tetrahydrobenzo[a]phenanthridin-4(1H)-one], the BACE1 protein expression entry is reported as “capable of lowering BACE1 expression”. Next, `CSc1ccc(C2Nc3ccc4ccccc4c3C3=C2C(=O)CC(C)(C)C3)cc1` (centres unmarked) [ALT-311, 2,2-dimethyl-5-(4-(methylthio)phenyl)-2,3,5,6-tetrahydrobenzo[a]phenanthridin-4(1H)-one]: “capable of lowering BACE1 expression”. On to `O=C1CCCC2=C1C(c1ccc(O)c(O)c1)Nc1c2ccc2ccccc12` (centres unmarked) [ALT-317, 6-(3,4-dihydroxyphenyl)-6,8,9,10-tetrahydrobenzo[c]phenanthridin-7(5H)-one], for which the BACE1 protein expression entry is listed as “capable of lowering BACE1 expression”. Under `CCN(CC)c1ccc(C2Nc3ccc4ccccc4c3C3=C2C(=O)CC(C)(C)C3)cc1` (centres unmarked) [ALT-318, 5-(4-(diethylamino)phenyl)-2,2-dimethyl-2,3,5,6-tetrahydrobenzo[a]phenanthridin-4(1H)-one] stands “capable of lowering BACE1 expression”; under `CC1CCN(c2ccc(C3Nc4ccc5ccccc5c4C4=C3C(=O)CC(C)(C)C4)cc2[N+](=O)[O-])CC1` (centres unmarked) [ALT-322, 2,2-dimethyl-5-(4-(4-methylpiperidin-1-yl)-3-nitrophenyl)-2,3,5,6-tetrahydrobenzo[a]phenanthridin-4(1H)-one], “capable of lowering BACE1 expression”. Next, `Cn1ccnc1Sc1ccc(C2Nc3ccc4ccccc4c3C3=C2C(=O)CC(C)(C)C3)cc1[N+](=O)[O-]` (centres unmarked) [ALT-324, 2,2-dimethyl-5-(4-((1-methyl-1H-imidazol-2-yl)thio)-3-nitrophenyl)-2,3,5,6-tetrahydrobenzo[a]phenanthridin-4(1H)-one]: “capable of lowering BACE1 expression”; `Cc1ccc(C2Nc3c(ccc4ccccc34)C3=C2C(=O)CC(C)(C)C3)cc1` (centres unmarked) [ALT-333, 9,9-dimethyl-6-(p-tolyl)-6,8,9,10-tetrahydrobenzo[c]phenanthridin-7(5H)-one]: “capable of lowering BACE1 expression”.

Regarding `C#CCOc1c(I)cc(C2Nc3ccc4ccccc4c3C3=C2C(=O)CC(C)(C)C3)cc1OC` (centres unmarked) [ALT-402, 5-(3-iodo-5-methoxy-4-(prop-2-yn-1-yloxy)phenyl)-2,2-dimethyl-2,3,5,6-tetrahydrobenzo[a]phenanthridin-4(1H)-one], the BACE1 protein expression result is on record as “capable of lowering BACE1 expression”. For the compound `O=C1CCCC2=C1C(c1ccc3c(c1)OCO3)Nc1c2ccc2ncccc12` (centres unmarked) [ALT-403, 6-(benzo[d][1,3]dioxol-5-yl)-6,8,9,10-tetrahydrobenzo[c][1,7]phenanthrolin-7(5H)-one], the BACE1 protein expression result is “capable of lowering BACE1 expression”. Next, `CCN(CC)c1ccc(C2Nc3ccc4ncccc4c3C3=C2C(=O)CC(C)(C)C3)cc1` (centres unmarked) [ALT-404, 8-(4-(diethylamino)phenyl)-11,11-dimethyl-8,10,11,12-tetrahydrobenzo[a][4,7]phenanthrolin-9(7H)-one]: “capable of lowering BACE1 expression”. Under `CCOC(=O)COc1c(Cl)cc(C2Nc3ccc4ccccc4c3C3=C2C(=O)CCC3)cc1OC` (centres unmarked) [ALT-406, ethyl 2-(2-chloro-6-methoxy-4-(4-oxo-1,2,3,4,5,6-hexahydrobenzo[a]phenanthridin-5-yl)phenoxy)acetate] stands “capable of lowering BACE1 expression”. With `CCCC(=O)Oc1ccc(C2Nc3ccc4ccccc4c3C3=C2C(=O)CCC3)cc1OC` (centres unmarked) [ALT-408, 2-methoxy-4-(4-oxo-1,2,3,4,5,6-hexahydrobenzo[a]phenanthridin-5-yl)phenyl butyrate], the BACE1 protein expression entry is given as “capable of lowering BACE1 expression”. Under `C=CCOc1ccc(C2Nc3ccc4ccccc4c3C3=C2C(=O)CC(C)(C)C3)cc1OC` (centres unmarked) [ALT-409, 5-(4-(allyloxy)-3-methoxyphenyl)-2,2-dimethyl-2,3,5,6-tetrahydrobenzo[a]phenanthridin-4(1H)-one] stands “capable of lowering BACE1 expression”; under `COC(=O)COc1ccc(C2Nc3ccc4ccccc4c3C3=C2C(=O)CCC3)cc1` (centres unmarked) [ALT-411, methyl 2-(4-(4-oxo-1,2,3,4,5,6-hexahydrobenzo[a]phenanthridin-5-yl)phenoxy)acetate], “capable of lowering BACE1 expression”.

Turning to `COc1cc(C2Nc3ccc4ccccc4c3C3=C2C(=O)CC(C)(C)C3)ccc1OCC(=O)O` (centres unmarked) [ALT-413, 2-(4-(2,2-dimethyl-4-oxo-1,2,3,4,5,6-hexahydrobenzo[a]phenanthridin-5-yl)-2-methoxyphenoxy)acetic acid], the BACE1 protein expression entry is recorded as “capable of lowering BACE1 expression”.

The values are drawn from patent publication US20230095021A1, “MODULATORS OF TDP-43” (Alteron Therapeutics, Inc., priority 2019, published 2023).
